Drawing on patent publication US20130261114A1, “COMPOUNDS USEFUL AS INHIBITORS OF CHOLINE KINASE” (priority 2011, published 2013), this text covers IC50 for eleven molecules.

Values joined by “and” are separate entries in the source; they are usually repeats but may differ in a detail not shown here. Equal entries are not always repeated.

The experiment deals with T1, Choline Kinase alpha enzyme (Homo sapiens, UniProt P35790).
T1 construct: hChoKα1 (M1-V457) (NP_001268); GST (N); made in house; host or cells: E. coli BL21(DE3)
T1 sequence (P35790 whole entry): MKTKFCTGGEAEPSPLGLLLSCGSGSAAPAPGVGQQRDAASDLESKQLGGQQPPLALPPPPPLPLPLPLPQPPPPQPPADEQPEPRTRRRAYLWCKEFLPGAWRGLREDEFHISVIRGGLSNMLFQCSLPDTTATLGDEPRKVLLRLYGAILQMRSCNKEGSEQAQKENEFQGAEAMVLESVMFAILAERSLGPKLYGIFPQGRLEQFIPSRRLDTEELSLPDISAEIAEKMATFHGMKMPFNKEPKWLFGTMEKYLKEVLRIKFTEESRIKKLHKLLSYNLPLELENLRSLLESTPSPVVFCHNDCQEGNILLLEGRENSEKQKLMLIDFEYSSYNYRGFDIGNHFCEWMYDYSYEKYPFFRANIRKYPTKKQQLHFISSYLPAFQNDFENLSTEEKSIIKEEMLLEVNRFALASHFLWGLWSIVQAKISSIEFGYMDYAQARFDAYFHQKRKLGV
Description: Choline Kinase Alpha Inhibition Assay. It is filed as biochemical. The conditions noted are these: 20 nM enzyme, 200 μM choline chloride, 400 μM ATP, 25° C., coupled NADH absorbance at 340 nm; read-out: IC50 values (inhibiting Choline Kinase Alpha). On the procedure: An assay buffer solution was prepared which consisted of 100 mM Tris-HCl (pH 7.5), 100 mM KCl, and 10 mM MgCl2. An enzyme buffer containing reagents to final assay concentrations of 290 μM NADH, 2.4 mM phosphoenolpyruvate, 60 μg/mL pyruvate kinase, 20 μg/mL lactate dehydrogenase, 200 μM choline chloride substrate and 20 nM Choline Kinase alpha enzyme was prepared in assay buffer. To 32 μL of this enzyme buffer, in a 96 well plate, was added 2 μL of VRT stock solution in DMSO. The mixture was allowed to equilibrate for 10 mins at 25° C. The enzyme reaction was initiated by the addition of 32 μL stock ATP solution prepared in assay buffer to a final assay concentration of 400 μM. Initial rate data was determined from the rate of change of absorbance at 340 nm (corresponding to stoichiometric consumption of NADH) using a Molecular Devices Spectramax plate reader (Sunnyvale, Calif.) over 15 mins at 25° C. For each IC50 determination, 12 data points covering the VRT concentration range of 0-100 μM were obtained in duplicate (DMSO stocks were prepared from an initial 10 mM VRT stock with subsequent 1:2.5 serial dilutions). IC50 values were calculated from initial rate data using the Prism software package (Prism 4.0a, Graphpad Software, San Diego, Calif.).
hChoKα1 (M1-V457) (NP_001268) was codon optimized for E. coli and cloned into a modified pGEX-2T vector. Recombinant GST-tagged ChoKα1 protein was produced in E. coli strain BL21(DE3). After growing cell cultures at 37° C. until the OD600=1, the cultures were induced with 1 mM IPTG for 16 h at 30° C. and the cells were harvested as a pellet (8500 rpm, 4° C., 20 min). The protein was purified using glutathione affinity purification followed by size exclusion via Superdex-200 26/60 (GE Healthcare). See Malito, Enrico et. al., “Journal of Molecular Biology”, Volume 364, Issue 2, pages 136-151 (November 2006).

Regarding `OC(c1ccc(Cl)s1)(c1ccc(Cl)s1)C1CN2CCC1CC2` (centres unmarked) [Compound I-81], the IC50 – broadly, the concentration that gives 50% inhibition – lay in the range of 100 to 1000 nM.
For the molecule `OC(c1ccccc1)(c1ccc(Cl)cc1)C1C[N@]2CC[C@@H]1CC2` (some centres unmarked) [Compound I-86], the IC50 lay within 100 to 1000 nM.
Next, `Cc1ccccc1C(O)(Cc1ccccc1)C1CN2CCC1CC2` (single isomer, unassigned) [Compound I-78, 1-(o-tolyl)-2-phenyl-1-quinuclidin-3-yl-ethanol]: below 100 nM; `OC(Cc1ccccc1)(c1ccccc1)C1CN2CCC1CC2` (centres unmarked) [Compound I-80]: 100 to 1000 nM.
Under `CN(C)c1ccc(C(O)(c2ccc(N(C)C)cc2)C2CN3CCC2CC3)cc1` (centres unmarked) [Compound I-79] stands 100 to 1000 nM and 1000 to 75000 nM.
Next, `CN(C)c1ccc(CCC(O)(c2ccc(N(C)C)cc2)C2CN3CCC2CC3)cc1` (centres unmarked) [Compound I-17]: 1000 to 75000 nM; `OC(c1cccc(Cl)c1)(c1cccc(Cl)c1)C1CN2CCC1CC2` (centres unmarked) [Compound I-82]: 1000 to 75000 nM.
On to `OC(Cc1ccccc1)(Cc1ccccc1)C1CN2CCC1CC2` (centres unmarked) [Compound I-83], for which the IC50 was in the range of 1000 to 75000 nM.
Next, `Cc1ccccc1C(O)(Cc1ccccc1)C1CN2CCC1CC2` (single isomer, unassigned) [Compound I-84, 1-(o-tolyl)-2-phenyl-1-quinuclidin-3-yl-ethanol]: 1000 to 75000 nM.
Next, `OC(c1ccccc1)(c1ccccc1Cl)C1C[N@]2CC[C@@H]1CC2` (some centres unmarked) [Compound I-85]: 100 to 1000 nM; `OC(c1ccccc1)(c1ccccc1)C1CN2CCC1CC2` (centres unmarked) [Compound I-87]: 100 to 1000 nM.
